# From PubChem BioAssay (NCI)
#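 Each compound was tested at five concentrations against cells in 96-well plates for 48 hours. At the TGI there is no net growth.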
# Tests used:
# Assay in all cases: inhibition of tumour cell growth, NCI panel, 48 h
# 786-0 renal = test system: 786-0 renal
# A498 renal = test system: A498 renal
# A549 NSCLC = test system: A549 NSCLC
# ACHN renal = test system: ACHN renal
# BT-549 breast = test system: BT-549 breast
# CAKI-1 renal = test system: CAKI-1 renal
# CCRF-CEM leukemia = test system: CCRF-CEM leukemia
# COLO 205 colon = test system: COLO 205 colon
# DU-145 prostate = test system: DU-145 prostate
# EKVX NSCLC = test system: EKVX NSCLC
# HCC-2998 colon = test system: HCC-2998 colon
# HCT-116 colon = test system: HCT-116 colon
# HCT-15 colon = test system: HCT-15 colon
# HL-60(TB) leukemia = test system: HL-60(TB) leukemia
# HOP-62 NSCLC = test system: HOP-62 NSCLC
# HOP-92 NSCLC = test system: HOP-92 NSCLC
# HS 578T breast = test system: HS 578T breast
# HT29 colon = test system: HT29 colon
# IGROV1 ovarian = test system: IGROV1 ovarian
# K-562 leukemia = test system: K-562 leukemia
# KM12 colon = test system: KM12 colon
# LOX IMVI melanoma = test system: LOX IMVI melanoma
# M14 melanoma = test system: M14 melanoma
# MALME-3M melanoma = test system: MALME-3M melanoma
# MCF7 breast = test system: MCF7 breast
# MDA-MB-435 = test system: MDA-MB-435
# MDA-N = test system: MDA-N
# MOLT-4 leukemia = test system: MOLT-4 leukemia
# NCI-H226 lung = test system: NCI-H226 lung
# NCI-H23 lung = test system: NCI-H23 lung
# NCI-H460 lung = test system: NCI-H460 lung
# NCI-H522 lung = test system: NCI-H522 lung
# NCI/ADR-RES ovarian = test system: NCI/ADR-RES ovarian
# OVCAR-3 ovarian = test system: OVCAR-3 ovarian
# OVCAR-4 ovarian = test system: OVCAR-4 ovarian
# OVCAR-5 ovarian = test system: OVCAR-5 ovarian
# OVCAR-8 ovarian = test system: OVCAR-8 ovarian
# PC-3 prostate = test system: PC-3 prostate
# RPMI-8226 leukemia = test system: RPMI-8226 leukemia
# RXF 393 renal = test system: RXF 393 renal
# SF-268 CNS = test system: SF-268 CNS
# SF-295 CNS = test system: SF-295 CNS
# SF-539 CNS = test system: SF-539 CNS
# SK-MEL-2 melanoma = test system: SK-MEL-2 melanoma
# SK-MEL-28 melanoma = test system: SK-MEL-28 melanoma
# SK-MEL-5 melanoma = test system: SK-MEL-5 melanoma
# SK-OV-3 ovarian = test system: SK-OV-3 ovarian
# SN12C renal = test system: SN12C renal
# SNB-19 CNS = test system: SNB-19 CNS
# SNB-75 CNS = test system: SNB-75 CNS
# SR leukemia = test system: SR leukemia
# SW-620 colon = test system: SW-620 colon
# T-47D breast = test system: T-47D breast
# TK-10 renal = test system: TK-10 renal
# U251 CNS = test system: U251 CNS
# UACC-257 melanoma = test system: UACC-257 melanoma
# UACC-62 melanoma = test system: UACC-62 melanoma
# UO-31 renal = test system: UO-31 renal
# MDA-MB-231 breast = test system: MDA-MB-231 breast
compound,measurement,setting,value
CCOC(=O)/C(=C\NCc1ccc2c(c1)OCO2)c1nc2ccccc2[nH]1,TGI,786-0 renal,> 100 µM
same,TGI,A498 renal,> 100 µM
same,TGI,A549 NSCLC,> 100 µM
same,TGI,ACHN renal,> 100 µM
same,TGI,BT-549 breast,> 100 µM
same,TGI,CAKI-1 renal,> 100 µM
same,TGI,CCRF-CEM leukemia,> 100 µM
same,TGI,COLO 205 colon,> 100 µM
same,TGI,DU-145 prostate,> 100 µM
same,TGI,EKVX NSCLC,> 100 µM
same,TGI,HCC-2998 colon,> 100 µM
same,TGI,HCT-116 colon,> 100 µM
same,TGI,HCT-15 colon,> 100 µM
same,TGI,HL-60(TB) leukemia,> 100 µM
same,TGI,HOP-62 NSCLC,> 100 µM
same,TGI,HOP-92 NSCLC,> 100 µM
same,TGI,HS 578T breast,> 100 µM
same,TGI,HT29 colon,> 100 µM
same,TGI,IGROV1 ovarian,> 100 µM
same,TGI,K-562 leukemia,> 100 µM
same,TGI,KM12 colon,> 100 µM
same,TGI,LOX IMVI melanoma,> 100 µM
same,TGI,M14 melanoma,> 100 µM
same,TGI,MALME-3M melanoma,> 100 µM
same,TGI,MCF7 breast,> 100 µM
same,TGI,MDA-MB-435,> 100 µM
same,TGI,MDA-N,> 100 µM
same,TGI,MOLT-4 leukemia,> 100 µM
same,TGI,NCI-H226 lung,> 100 µM
same,TGI,NCI-H23 lung,> 100 µM
same,TGI,NCI-H460 lung,> 100 µM
same,TGI,NCI-H522 lung,> 100 µM
same,TGI,NCI/ADR-RES ovarian,> 100 µM
same,TGI,OVCAR-3 ovarian,> 100 µM
same,TGI,OVCAR-4 ovarian,> 100 µM
same,TGI,OVCAR-5 ovarian,> 100 µM
same,TGI,OVCAR-8 ovarian,> 100 µM
same,TGI,PC-3 prostate,> 100 µM
same,TGI,RPMI-8226 leukemia,> 100 µM
same,TGI,RXF 393 renal,> 100 µM
same,TGI,SF-268 CNS,> 100 µM
same,TGI,SF-295 CNS,> 100 µM
same,TGI,SF-539 CNS,> 100 µM
same,TGI,SK-MEL-2 melanoma,> 100 µM
same,TGI,SK-MEL-28 melanoma,> 100 µM
same,TGI,SK-MEL-5 melanoma,> 100 µM
same,TGI,SK-OV-3 ovarian,> 100 µM
same,TGI,SN12C renal,> 100 µM
same,TGI,SNB-19 CNS,> 100 µM
same,TGI,SNB-75 CNS,> 100 µM
same,TGI,SR leukemia,> 100 µM
same,TGI,SW-620 colon,> 100 µM
same,TGI,T-47D breast,> 100 µM
same,TGI,TK-10 renal,60 µM
same,TGI,U251 CNS,> 100 µM
same,TGI,UACC-257 melanoma,> 100 µM
same,TGI,UACC-62 melanoma,> 100 µM
same,TGI,UO-31 renal,> 100 µM
COc1cccc2c(Nc3ccc(S(=O)(=O)N=C(N)N)cc3)c3ccc([N+](=O)[O-])cc3nc12,TGI,786-0 renal,46.7 µM
same,TGI,A498 renal,44.9 µM
same,TGI,A549 NSCLC,> 100 µM
same,TGI,ACHN renal,31.9 µM
same,TGI,BT-549 breast,46.1 µM
same,TGI,CAKI-1 renal,32.1 µM
same,TGI,CCRF-CEM leukemia,31.6 µM
same,TGI,COLO 205 colon,> 100 µM
same,TGI,DU-145 prostate,> 100 µM
same,TGI,EKVX NSCLC,> 100 µM
same,TGI,HCC-2998 colon,87.2 µM
same,TGI,HCT-116 colon,> 100 µM
same,TGI,HCT-15 colon,> 100 µM
same,TGI,HOP-62 NSCLC,64.3 µM
same,TGI,HOP-92 NSCLC,> 100 µM
same,TGI,HT29 colon,> 100 µM
same,TGI,IGROV1 ovarian,31.4 µM
same,TGI,K-562 leukemia,> 100 µM
same,TGI,LOX IMVI melanoma,57 µM
same,TGI,M14 melanoma,> 100 µM
same,TGI,MALME-3M melanoma,31.4 µM
same,TGI,MCF7 breast,> 100 µM
same,TGI,MDA-MB-231 breast,18 µM
same,TGI,MDA-MB-435,> 100 µM
same,TGI,MDA-N,61.1 µM
same,TGI,MOLT-4 leukemia,> 100 µM
same,TGI,NCI-H226 lung,> 100 µM
same,TGI,NCI-H23 lung,52.3 µM
same,TGI,NCI-H460 lung,> 100 µM
same,TGI,NCI-H522 lung,36.5 µM
same,TGI,NCI/ADR-RES ovarian,> 100 µM
same,TGI,OVCAR-3 ovarian,> 100 µM
same,TGI,OVCAR-4 ovarian,> 100 µM
same,TGI,OVCAR-5 ovarian,> 100 µM
same,TGI,OVCAR-8 ovarian,> 100 µM
same,TGI,PC-3 prostate,> 100 µM
same,TGI,RPMI-8226 leukemia,86.5 µM
same,TGI,RXF 393 renal,> 100 µM
same,TGI,SF-268 CNS,> 100 µM
same,TGI,SF-295 CNS,> 100 µM
same,TGI,SF-539 CNS,> 100 µM
same,TGI,SK-MEL-2 melanoma,37.6 µM
same,TGI,SK-MEL-28 melanoma,> 100 µM
same,TGI,SK-MEL-5 melanoma,45.5 µM
same,TGI,SK-OV-3 ovarian,> 100 µM
same,TGI,SN12C renal,> 100 µM
same,TGI,SNB-19 CNS,> 100 µM
same,TGI,SR leukemia,70.7 µM
same,TGI,SW-620 colon,> 100 µM
same,TGI,T-47D breast,85.9 µM
same,TGI,TK-10 renal,> 100 µM
same,TGI,U251 CNS,> 100 µM
same,TGI,UACC-257 melanoma,56.1 µM
same,TGI,UACC-62 melanoma,32.8 µM
same,TGI,UO-31 renal,44.7 µM
